Experimental data from patent US7998940B2, “Aptamers to von Willebrand factor and their use as thrombotic disease therapeutics” (Archemix Corp., priority 2004, dated 2011).
pKd: −log10 of the molar value. Read-outs that look alike come from different tables or passages of the source. Oligonucleotides are written 5' to 3', each unit as a sugar letter and its base; * is a phosphorothioate linkage, no mark a phosphodiester; rarer units and linkages stand in square brackets, end groups in braces. Plain capitals give the bases only. [invdT] = inverted (3'-3') thymidine; d = 2'-deoxy (DNA); m = 2'-O-methyl

Test system: full length human vWF (SEQ ID NO 7)
Assay: dot blot KD determination and extent of binding, full length human vWF;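 further: dot blot binding of aptamers to full length human vWF across a protein titration, incubated 30 minutes at room temperature in 1x DPBS with BSA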
Conditions: for % binding @ 100 nM vWF: extent of aptamer binding at 100 nM full length human vWF; for pKd: full length human vWF, dot blot, 8 point protein titration, read-out: KD
Description: Based on this initial screen, KDs were determined for 3 of the vWF dependent binding sequences using the dot blot assay. […] A 12 point protein titration was used in the dot blot assay (300 nM, 100 nM, 30 nM, 10 nM, 3 nM, 1 nM, 300 pM, 100 pM, 30 pM, 10 pM, 3 pM, 0 pM) in 1×DPBS plus 0.1 mg/mL BSA at room temperature for 30 minutes.
An 8 point protein titration was used in the dot blot binding assay (100n M, 30 nM, 10 nM, 3 nM, 1 nM, 300 pM, 100 pM, 0 pM)) in 1× Dulbecco's PBS containing 0.1 BSA (final volume of 50 uL) for 30 minutes at room temperature.

| Substance | % binding @ 100 nM vWF (Phase 1 modification) [%] | pKd (Phase 1 modification) | % binding @ 100 nM vWF (Phase 3 modification) [%] | pKd (Phase 3 modification) |
| --- | --- | --- | --- | --- |
| ARC1225: ARC1172 with one residue replaced by 2'-O methyl residue (dGdGdCdGdTdGdCdAdGdTdGdCdCdTdTdCdGdGdCdCdGdTdGdCdGdGdTdGdCdCdTmCdCdGdTdCdAdCdGdCdC[invdT]; aptamer) | 16 | 7.96 | – | – |
| ARC1226: ARC1172 with one residue replaced by 2'-O methyl residue (dGdGdCdGdTdGdCdAdGdTdGdCdCdTdTdCdGdGdCdCdGdTdGdCdGdGdTdGdCdCdTdCmCdGdTdCdAdCdGdCdC[invdT]; aptamer) | 25 | 7.92 | – | – |
| ARC1227: ARC1172 with one residue replaced by 2'-O methyl residue (dGdGdCdGdTdGdCdAdGdTdGdCdCdTdTdCdGdGdCdCdGdTdGdCdGdGdTdGdCdCdTdCdCmGdTdCdAdCdGdCdC[invdT]; aptamer) | 40 | 8.52 | – | – |
| ARC1228: ARC1172 with one residue replaced by 2'-O methyl residue (dGdGdCdGdTdGdCdAdGdTdGdCdCdTdTdCdGdGdCdCdGdTdGdCdGdGdTdGdCdCdTdCdCdGmUdCdAdCdGdCdC[invdT]; aptamer) | 43 | 8.70 | – | – |
| ARC1229: ARC1172 with one residue replaced by 2'-O methyl residue (dGdGdCdGdTdGdCdAdGdTdGdCdCdTdTdCdGdGdCdCdGdTdGdCdGdGdTdGdCdCdTdCdCdGdTmCdAdCdGdCdC[invdT]; aptamer) | 37 | 8.30 | – | – |
| ARC1230: ARC1172 with one residue replaced by 2'-O methyl residue (dGdGdCdGdTdGdCdAdGdTdGdCdCdTdTdCdGdGdCdCdGdTdGdCdGdGdTdGdCdCdTdCdCdGdTdCmAdCdGdCdC[invdT]; aptamer) | 46 | 8.52 | – | – |
| ARC1231: ARC1172 with one residue replaced by 2'-O methyl residue (dGdGdCdGdTdGdCdAdGdTdGdCdCdTdTdCdGdGdCdCdGdTdGdCdGdGdTdGdCdCdTdCdCdGdTdCdAmCdGdCdC[invdT]; aptamer) | 50 | 9.00 | – | – |
| ARC1232: ARC1172 with one residue replaced by 2'-O methyl residue (dGdGdCdGdTdGdCdAdGdTdGdCdCdTdTdCdGdGdCdCdGdTdGdCdGdGdTdGdCdCdTdCdCdGdTdCdAdCmGdCdC[invdT]; aptamer) | 51 | 9.00 | – | – |
| ARC1233: ARC1172 with one residue replaced by 2'-O methyl residue (dGdGdCdGdTdGdCdAdGdTdGdCdCdTdTdCdGdGdCdCdGdTdGdCdGdGdTdGdCdCdTdCdCdGdTdCdAdCdGmCdC[invdT]; aptamer) | 39 | 8.70 | – | – |
| ARC1234: ARC1172 with one residue replaced by 2'-O methyl residue (dGdGdCdGdTdGdCdAdGdTdGdCdCdTdTdCdGdGdCdCdGdTdGdCdGdGdTdGdCdCdTdCdCdGdTdCdAdCdGdCmC[invdT]; aptamer) | 42 | 8.70 | – | – |
| ARC1235: ARC1172 with composite 2'-O methyl replacements in the stem regions (mGmGdCmGdTmGdCdAdGdTdGdCdCdTdTdCdGdGdCdCdGdTdGdCdGdGdTdGdCdCdTdCdCdGdTdCmAdCmGdCdC[invdT]; aptamer) | 23 | 7.89 | – | – |
| ARC1236: ARC1172 with composite 2'-O methyl replacements in the stem regions (dGdGmCdGmUdGdCdAdGdTdGdCdCdTdTdCdGdGdCdCdGdTdGdCdGdGdTdGdCdCdTdCdCdGdTmCdAmCdGmCmC[invdT]; aptamer) | 32 | 8.52 | – | – |
| ARC1237: ARC1172 with composite 2'-O methyl replacements in the stem regions (mGmGmCmGmUmGdCdAdGdTdGdCdCdTdTdCdGdGdCdCdGdTdGdCdGdGdTdGdCdCdTdCdCdGdTmCmAmCmGmCmC[invdT]; aptamer) | 9 | 7.39 | – | – |
| ARC1238: ARC1172 with composite 2'-O methyl replacements in the stem regions (dGdGdCdGdTdGdCdAdGdTmGdCdCdTdTdCmGmGdCdCdGdTdGdCdGdGdTdGdCdCdTdCdCdGdTdCdAdCdGdCdC[invdT]; aptamer) | 43 | 8.70 | – | – |
| ARC1239: ARC1172 with composite 2'-O methyl replacements in the stem regions (dGdGdCdGdTdGdCdAdGdTdGmCmCdTdTdCdGdGmCdCdGdTdGdCdGdGdTdGdCdCdTdCdCdGdTdCdAdCdGdCdC[invdT]; aptamer) | 37 | 8.30 | – | – |
| ARC1240: ARC1172 with composite 2'-O methyl replacements in the stem regions (dGdGdCdGdTdGdCdAdGdTmGmCmCdTdTdCmGmGmCdCdGdTdGdCdGdGdTdGdCdCdTdCdCdGdTdCdAdCdGdCdC[invdT]; aptamer) | 40 | 8.40 | – | – |
| ARC1361: ARC1346 with a mC to dC modification at position 36 (mGmCmGmUdGdCdAmGmUmGmCmCmUmUmCmGmGmCdCmGdTmGdCdGdGdTmGmCdCmUdCdCmGmUdCmAmCmGmC[invdT]) | – | – | 38.5 | 8.10 |
| ARC1362: ARC1361 with single phosphorothioate phosphate backbone modification (mGmCmGmU*dGdCdAmGmUmGmCmCmUmUmCmGmGmCdCmGdTmGdCdGdGdTmGmCdCmUdCdCmGmUdCmAmCmGmC[invdT]) | – | – | 34.3 | 8.00 |
| ARC1363: ARC1361 with single phosphorothioate phosphate backbone modification (mGmCmGmUdG*dCdAmGmUmGmCmCmUmUmCmGmGmCdCmGdTmGdCdGdGdTmGmCdCmUdCdCmGmUdCmAmCmGmC[invdT]; aptamer) | – | – | 32.7 | 7.90 |
| ARC1364: ARC1361 with single phosphorothioate phosphate backbone modification (mGmCmGmUdGdC*dAmGmUmGmCmCmUmUmCmGmGmCdCmGdTmGdCdGdGdTmGmCdCmUdCdCmGmUdCmAmCmGmC[invdT]; aptamer) | – | – | 36.9 | 8.09 |
| ARC1365: ARC1361 with single phosphorothioate phosphate backbone modification (mGmCmGmUdGdCdA*mGmUmGmCmCmUmUmCmGmGmCdCmGdTmGdCdGdGdTmGmCdCmUdCdCmGmUdCmAmCmGmC[invdT]; aptamer) | – | – | 35.4 | 7.97 |
| ARC1366: ARC1361 with single phosphorothioate phosphate backbone modification (mGmCmGmUdGdCdAmGmUmGmCmCmUmUmCmGmGmC*dCmGdTmGdCdGdGdTmGmCdCmUdCdCmGmUdCmAmCmGmC[invdT]; aptamer) | – | – | 28.9 | 7.81 |
| ARC1367: ARC1361 with single phosphorothioate phosphate backbone modification (mGmCmGmUdGdCdAmGmUmGmCmCmUmUmCmGmGmCdC*mGdTmGdCdGdGdTmGmCdCmUdCdCmGmUdCmAmCmGmC[invdT]; aptamer) | – | – | 30.4 | 7.86 |
